# What was measured:
# Type in all cases: in vivo
# [1] = tested on: yellow nutsedge (Cyperus esculentus); test: Test C pre/postemergence; settings: Cyperus, post-emergence, Postemergence
# Method in brief: (§1)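 Greenhouse pot test: seeds treated preemergence, or plants at 2–18 cm (1- to 4-leaf stage) treated postemergence, with compound in non-phytotoxic solvent plus surfactant. Visual rating versus untreated controls after 12–14 days, scale 0 (no effect) to 100 (complete control); dash means not tested.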
# [2] = tested on: velvetleaf (Abutilon theophrasti); test: Test C pre/postemergence; settings: Abutilon theophrasti, post-emergence, Postemergence
# Method in brief: as §1
# [3] = tested on: goosegrass (Eleusine indica); test: Test C pre/postemergence; settings: Eleusine indica, post-emergence, Postemergence
# Method in brief: as §1
# [4] = tested on: pigweed (Amaranthus retroflexus); test: Test C pre/postemergence; settings: Amaranthus retroflexus, post-emergence, Postemergence
# Method in brief: as §1
# [5] = tested on: bermudagrass (Cynodon dactylon); test: Test C pre/postemergence; settings: Cynodon dactylon, post-emergence, Postemergence
# Method in brief: as §1
# [6] = tested on: woolly cupgrass (Eriochloa villosa); test: Test C pre/postemergence; settings: Eriochloa villosa, post-emergence, Postemergence
# Method in brief: as §1
# [7] = tested on: common ragweed (Ambrosia elatior); test: Test C pre/postemergence; settings: Ambrosia artemisiifolia, post-emergence, Postemergence
# Method in brief: as §1
# [8] = tested on: chickweed (Stellaria media); test: Test C postemergence; settings: Stellaria media, post-emergence
# Method in brief: as §1
smiles,measurement,setting,value
CCOC(=O)c1nc(C2CC2)nc(NN)c1Br [Compound 42],pest or weed control at 31 g/ha,"[1]; 31 g ai/ha, read-out: Plant response rating (scale of 0 to 100), Nutsedge, Yellow",0%
same,pest or weed control at 62 g/ha,"[1]; 62 g ai/ha, scale 0 to 100 (0 no effect, 100 complete control), read-out: Nutsedge, Yellow plant response rating",0%
same,pest or weed control at 125 g/ha,"[1]; 125 g ai/ha, scale 0 to 100 (0 no effect, 100 complete control), read-out: Nutsedge, Yellow plant response rating",0%
same,pest or weed control at 250 g/ha,"[1]; 250 g ai/ha, scale 0 to 100, read-out: Plant response rating, Nutsedge, Yellow",0%
same,pest or weed control at 31 g/ha,"[2]; 31 g ai/ha, read-out: Plant response rating (scale of 0 to 100), Velvetleaf",0%
same,pest or weed control at 62 g/ha,"[2]; 62 g ai/ha, scale 0 to 100 (0 no effect, 100 complete control), read-out: Velvetleaf plant response rating",0%
same,pest or weed control at 125 g/ha,"[2]; 125 g ai/ha, scale 0 to 100 (0 no effect, 100 complete control), read-out: Velvetleaf plant response rating",0%
same,pest or weed control at 250 g/ha,"[2]; 250 g ai/ha, scale 0 to 100, read-out: Plant response rating, Velvetleaf",20%
same,pest or weed control at 31 g/ha,"[3]; 31 g ai/ha, read-out: Plant response rating (scale of 0 to 100), Goosegrass",0%
same,pest or weed control at 62 g/ha,"[3]; 62 g ai/ha, scale 0 to 100 (0 no effect, 100 complete control), read-out: Goosegrass plant response rating",0%
same,pest or weed control at 125 g/ha,"[3]; 125 g ai/ha, scale 0 to 100 (0 no effect, 100 complete control), read-out: Goosegrass plant response rating",0%
same,pest or weed control at 250 g/ha,"[3]; 250 g ai/ha, scale 0 to 100, read-out: Plant response rating, Goosegrass",0%
same,pest or weed control at 31 g/ha,"[4]; 31 g ai/ha, read-out: Plant response rating (scale of 0 to 100), Pigweed",10%
same,pest or weed control at 62 g/ha,"[4]; 62 g ai/ha, scale 0 to 100 (0 no effect, 100 complete control), read-out: Pigweed plant response rating",10%
same,pest or weed control at 125 g/ha,"[4]; 125 g ai/ha, scale 0 to 100 (0 no effect, 100 complete control), read-out: Pigweed plant response rating",20%
same,pest or weed control at 250 g/ha,"[4]; 250 g ai/ha, scale 0 to 100, read-out: Plant response rating, Pigweed",30%
same,pest or weed control at 31 g/ha,"[5]; 31 g ai/ha, read-out: Plant response rating (scale of 0 to 100), Bermudagrass",0%
same,pest or weed control at 62 g/ha,"[5]; 62 g ai/ha, scale 0 to 100 (0 no effect, 100 complete control), read-out: Bermudagrass plant response rating",0%
same,pest or weed control at 125 g/ha,"[5]; 125 g ai/ha, scale 0 to 100 (0 no effect, 100 complete control), read-out: Bermudagrass plant response rating",0%
same,pest or weed control at 250 g/ha,"[5]; 250 g ai/ha, scale 0 to 100, read-out: Plant response rating, Bermudagrass",5%
same,pest or weed control at 31 g/ha,"[6]; 31 g ai/ha, read-out: Plant response rating (scale of 0 to 100), Cupgrass, Woolly",0%
same,pest or weed control at 62 g/ha,"[6]; 62 g ai/ha, scale 0 to 100 (0 no effect, 100 complete control), read-out: Cupgrass, Woolly plant response rating",0%
same,pest or weed control at 125 g/ha,"[6]; 125 g ai/ha, scale 0 to 100 (0 no effect, 100 complete control), read-out: Cupgrass, Woolly plant response rating",0%
same,pest or weed control at 250 g/ha,"[6]; 250 g ai/ha, scale 0 to 100, read-out: Plant response rating, Cupgrass, Woolly",5%
same,pest or weed control at 31 g/ha,"[7]; 31 g ai/ha, read-out: Plant response rating (scale of 0 to 100), Ragweed",0%
same,pest or weed control at 62 g/ha,"[7]; 62 g ai/ha, scale 0 to 100 (0 no effect, 100 complete control), read-out: Ragweed plant response rating",10%
same,pest or weed control at 125 g/ha,"[7]; 125 g ai/ha, scale 0 to 100 (0 no effect, 100 complete control), read-out: Ragweed plant response rating",40%
same,pest or weed control at 250 g/ha,"[7]; 250 g ai/ha, scale 0 to 100, read-out: Plant response rating, Ragweed",40%
same,pest or weed control at 31 g/ha,"[8]; 31 g ai/ha, read-out: Plant response rating (scale of 0 to 100), Chickweed",0%
same,pest or weed control at 62 g/ha,"[8]; 62 g ai/ha, scale 0 to 100 (0 no effect, 100 complete control), read-out: Chickweed plant response rating",0%
same,pest or weed control at 125 g/ha,"[8]; 125 g ai/ha, scale 0 to 100 (0 no effect, 100 complete control), read-out: Chickweed plant response rating",0%
same,pest or weed control at 250 g/ha,"[8]; 250 g ai/ha, scale 0 to 100, read-out: Plant response rating, Chickweed",10%

# From patent US8802597B2, “Herbicidal pyrimidines” (E I du Pont de Nemours and Company, priority 2003, dated 2014)
